Laboratory results taken from patent US11421264B2, “Thiol-containing cleave reagents and oxidative wash” (IsoPlexis Corporation, priority 2015, dated 2022).
Where a name gives a salt, the structure may show the parent alone.

Key:
[1] = Cleavage of 3′-(MeSSCH2) capped nucleotide with attached disulfide linker by thiol based cleave reagents (LC-MS); settings: for Compound C [%]: fully cleaved product; for Compound C [%] / Compound B [%] / Compound A [%]: Compound A 0.2 mM, cleave agent 20 mM, buffer 200 mM TE pH 8.5, 10 min @ 65 degree C.; for Compound B [%]: partly cleaved product; for Compound A [%]: starting nucleotide left, relative peak area at 280
Experimental: The structures of these cleave reagents are shown. See, FIG. 83. The cleavage products were then characterized by liquid chromatography/mass spectrometry ((LC/MS). See, FIG. 84. Compounds A, B and C are shown in FIG. 82A-82C.
This example presents a general method for cleavage studies as presented herein.
A stock solution of 100 mM cleave reagent (see Table-1) was prepared in 1.0 M TE buffer (pH 8.5, Sigma #T9285) in a 15.0 mL centrifuge tube. Then an aliquot of 20 μL (2,000 nmol) of it was diluted with 76.9 uL distilled water in a 1.0 mL centrifuge tube and added with 3.07 μL of 6.5 mM MeSSdUTP-ARA-NH2 (11, 20 nmol) to obtain—100 litL of total volume (Final concentration: 20 mM cleaving agent, 0.2 mM nucleotide, 200 mM TE buffer). The mixture tube was heated at 65 degree C. on a pre-heated thermocycler by shaking gently. The mixture was immediately analyzed by LC-MS after 10 minutes. The % conversion was determined by relative peak areas of the respective peaks extracted at 280 mu wavelength.

[2] = Cleavage of nucleotide with dithio 3′ protective group and dithio based linker by cleavage agents (RP-HPLC, FIG. 78); settings: RP-HPLC after 10 minutes of incubation with cleave reagent
Text: In addition to these a variety of suitable cleaving agents can be used such as Bis(2-mercaptoethyl)sulfone (BMS) and N,N′-dimethyl-N,N′-bis(mercaptoacetyl)hydrazine (DMH) (Singh et al., Bioorg. Chem., 22, 109-115 (1994). Reactions can be further catalyzed by inclusion of selenols (Singh et al. Anal Biochem. 1995 Nov. 20; 232(1):86-91 [18]). Borohydrides, such as sodium borohydrides can also be used for this purpose (Stahl et al., Anal. Chem., 1957, 29 (1), pp 154-155 [19]) as well as ascorbic acid (Nardai et al., J. Biol. Chem. 276, 8825-8828 (2001)). In addition, enzymatic methods for cleavage of disulfide bonds ae also well known such as disulfide and thioreductase and can be used with compounds of the present invention (Holmgren et. al., Methods in Enzymology, Volume 252, 1995, Pages 199-208 [21]).

O[C@H](CS)[C@H](O)CS (racemic) [DTT, dithiothreitol]
Compound C [%] [1]: 100%
Compound B [%] [1]: 0%
Compound A [%] [1]: 0%
identified composition of reaction mixture: cleavage of linker and 3′-protective group [2]: full cleavage of both linker and the 3′-protective groups

NCCS [Cysteamine]
Compound C [%] [1]: 100%
Compound B [%] [1]: 0%
Compound A [%] [1]: 0%
identified composition of reaction mixture: cleavage of linker and 3′-protective group [2]: full cleavage of both linker and the 3′-protective groups

O=S(=O)(O)CC(S)CS (centres unmarked) [Dimercaptopropanesulfonate, 2,3-Dimercapto-1-propanesulfonic acid sodium salt]
Compound C [%] [1]: 100%
Compound B [%] [1]: 0%
Compound A [%] [1]: 0%

OC(=S)CCC(O)=S [Dithiosuccinic acid]
cleavage of both the capping group and the linker ([1]; in less than ten (10) minutes at 65° C. in TRIS buffer (pH 8.5)): complete cleavage was not observed

N[C@@H](CS)C(=O)O [L-Cysteine]
Compound C [%] [1]: 100%
Compound B [%] [1]: 0%
Compound A [%] [1]: 0%
identified composition of reaction mixture: cleavage of linker and 3′-protective group [2]: full cleavage of both linker and the 3′-protective groups

Dithiosuccinic acid
Compound C [%] [1]: 50%
Compound B [%] [1]: 50%
Compound A [%] [1]: 0%
identified composition of reaction mixture: cleavage of linker and 3′-protective group [2]: selective cleavage of 3′-O-protective group
